For data set [1] the following is noted: mouse, microsomes, 1 h.
Data set [2] in a line: Selectivity index, ratio of CC50 for Macaca mulatta hepatocytes to IC50 for antiplasmodial activity against hypnozoite Plasmodium cynomolgi B strain infected in Macaca mulatta hepatocytes incubated with sporozoite containing salivary gland homogenate obtained from dissected Anopheles dirus mosquitoes (infected with Plasmodium cynomolgi B strain) treatment started on day 4 post infection and continued daily for 4 days into fresh changed media until day 8 assessed as Liver stage (LS) activity by measuring radical cure mode by immunofluorescent staining analysis. The format is toxicity, cell-based. The note with it: rhesus monkey, read-out: Selectivity Index.

Data set [3] can be described thus: Selectivity index, ratio of CC50 for Macaca mulatta hepatocytes to IC50 for antiplasmodial activity against schizont Plasmodium cynomolgi B strain infected in Macaca mulatta hepatocytes incubated with sporozoite containing salivary gland homogenate obtained from dissected Anopheles dirus mosquitoes (infected with Plasmodium cynomolgi B strain) treatment started on day 4 post infection and continued daily for 4 days into fresh changed media until day 8 assessed as Liver stage (LS) activity by measuring prophylactic mode by immunofluorescent staining analysis. The format is toxicity, cell-based. The note with it: rhesus monkey, read-out: Selectivity Index.

Data set [4] can be described thus: Toxicity in CF1 mouse infected with asexual blood-stage (ABS) Plasmodium yoelii MRA-428 assessed as hunching at 0.3 to 30 mg/kg, po treated 24 hrs post infection measured after 4 days. The format is organism-based. The note with it: in vivo, 96 h, dose 0.3-30 mg/kg, time 4 day.
Data set [5] concerns Plasmodium falciparum. Put plainly: Antiplasmodial activity against asexual blood-stage (ABS) MDR Plasmodium falciparum Dd2 infected in human erythrocytes assessed as reduction in fluorescence measured after 72 hrs by Malaria SYBR Green I-based Fluorescence (MSF) assay. The note with it: Dd2, Erythrocyte. The format is functional, organism-based.
In data set [6] the test system is Plasmodium cynomolgi. Put plainly: Antiplasmodial activity against schizont Plasmodium cynomolgi B strain infected in Macaca mulatta hepatocytes incubated with sporozoite containing salivary gland homogenate obtained from dissected Anopheles dirus mosquitoes (infected with Plasmodium cynomolgi B strain) treatment started on day 4 post infection and continued daily for 4 days into fresh changed media until day 8 assessed as Liver stage (LS) activity by measuring prophylactic mode by immunofluorescent staining analysis. The class given is functional, organism-based. The note with it: Hepatocyte.

Data set [7] in a line: Toxicity in CF1 mouse infected with asexual blood-stage (ABS) Plasmodium yoelii MRA-428 assessed as lethargy at 0.3 to 30 mg/kg, po treated 24 hrs post infection measured after 4 days. The format is organism-based. The note with it: in vivo, 96 h, dose 0.3-30 mg/kg, time 4 day.
Data set [8] deals with Plasmodium falciparum. Put plainly: Antiplasmodial activity against asexual blood-stage (ABS) CQ-sensitive Plasmodium falciparum D6 infected in human erythrocytes assessed as reduction in fluorescence measured after 72 hrs by Malaria SYBR Green I-based Fluorescence (MSF) assay. The class given is functional, organism-based. The note with it: D6, Erythrocyte.
Data set [9] has as its system Plasmodium cynomolgi. Put plainly: Antiplasmodial activity against schizont Plasmodium cynomolgi B strain infected in Macaca mulatta hepatocytes incubated with sporozoite containing salivary gland homogenate obtained from dissected Anopheles dirus mosquitoes (infected with Plasmodium cynomolgi B strain) treatment started on day 4 post infection and continued daily for 4 days into fresh changed media until day 8 assessed as Liver stage (LS) activity by measuring radical cure mode by immunofluorescent staining analysis. The class given is functional, organism-based. The note with it: Hepatocyte.

Data set [10] in a line: Toxicity in CF1 mouse infected with asexual blood-stage (ABS) Plasmodium yoelii MRA-428 assessed as hyperactivity at 0.3 to 30 mg/kg, po treated 24 hrs post infection measured after 4 days. The note with it: in vivo, 96 h, dose 0.3-30 mg/kg, time 4 day. The class given is organism-based.
A short description of data set [11]: Toxicity in CF1 mouse infected with asexual blood-stage (ABS) Plasmodium yoelii MRA-428 assessed as ruffled hair at 0.3 to 30 mg/kg, po treated 24 hrs post infection measured after 4 days. The class given is organism-based. The note with it: in vivo, 96 h, dose 0.3-30 mg/kg, time 4 day.
Data set [12] deals with Plasmodium cynomolgi. Put plainly: Antiplasmodial activity against hypnozoite Plasmodium cynomolgi B strain infected in Macaca mulatta hepatocytes incubated with sporozoite containing salivary gland homogenate obtained from dissected Anopheles dirus mosquitoes (infected with Plasmodium cynomolgi B strain) treatment started on day 4 post infection and continued daily for 4 days into fresh changed media until day 8 assessed as Liver stage (LS) activity by measuring prophylactic mode by immunofluorescent staining analysis. The format is functional, organism-based. The note with it: Hepatocyte.

The subject of data set [13] is Plasmodium falciparum. Put plainly: Antiplasmodial activity against asexual blood-stage (ABS) ATV-resistant clinical isolate Plasmodium falciparum Tm90-C2B infected in human erythrocytes assessed as reduction in fluorescence measured after 72 hrs by Malaria SYBR Green I-based Fluorescence (MSF) assay. The format is functional, organism-based. The note with it: Erythrocyte.

For data set [14], the system named is Hepatocyte. Put plainly: Cytotoxicity against Macaca mulatta hepatocytes assessed as cell viability measured after 48 hrs by MTT assay. The format is toxicity, cell-based. The note with it: rhesus monkey, 48 h. (Tetrazolium dyes change colour on reduction, which living cells bring about.)
Data set [15] is described as follows: Selectivity index, ratio of CC50 for Macaca mulatta hepatocytes to IC50 for antiplasmodial activity against hypnozoite Plasmodium cynomolgi B strain infected in Macaca mulatta hepatocytes incubated with sporozoite containing salivary gland homogenate obtained from dissected Anopheles dirus mosquitoes (infected with Plasmodium cynomolgi B strain) treatment started on day 4 post infection and continued daily for 4 days into fresh changed media until day 8 assessed as Liver stage (LS) activity by measuring prophylactic mode by immunofluorescent staining analysis. The format is toxicity, cell-based. The note with it: rhesus monkey, read-out: Selectivity Index.

The nature of data set [16]: Toxicity in CF1 mouse infected with asexual blood-stage (ABS) Plasmodium yoelii MRA-428 assessed as weight loss at 0.3 to 30 mg/kg, po treated 24 hrs post infection measured after 4 days. The format is organism-based. The note with it: in vivo, 96 h, dose 0.3-30 mg/kg, time 4 day.
The subject of data set [17] is Plasmodium cynomolgi. Put plainly: Antiplasmodial activity against hypnozoite Plasmodium cynomolgi B strain infected in Macaca mulatta hepatocytes incubated with sporozoite containing salivary gland homogenate obtained from dissected Anopheles dirus mosquitoes (infected with Plasmodium cynomolgi B strain) treatment started on day 4 post infection and continued daily for 4 days into fresh changed media until day 8 assessed as Liver stage (LS) activity by measuring radical cure mode by immunofluorescent staining analysis. The note with it: Hepatocyte. The format is functional, organism-based.

Data set [18] concerns HepG2. Put plainly: Cytotoxicity against human HepG2 cells assessed as cell viability measured after 48 hrs by MTT assay. The format is functional, cell-based. The note with it: HepG2, 48 h.
Data set [19] in a line: Selectivity index, ratio of CC50 for Macaca mulatta hepatocytes to IC50 for antiplasmodial activity against schizont Plasmodium cynomolgi B strain infected in Macaca mulatta hepatocytes incubated with sporozoite containing salivary gland homogenate obtained from dissected Anopheles dirus mosquitoes (infected with Plasmodium cynomolgi B strain) treatment started on day 4 post infection and continued daily for 4 days into fresh changed media until day 8 assessed as Liver stage (LS) activity by measuring radical cure mode by immunofluorescent staining analysis. The format is toxicity, cell-based. The note with it: rhesus monkey, read-out: Selectivity Index.

What is called IC50 is the concentration that gives 50% inhibition. What is called CC50 is the concentration at which the toxic effect on the cells reaches its halfway point.

In the case of `O=c1c2c([nH]c3ccc(F)c(Oc4ccc(OC(F)(F)F)cc4)c13)CCCC2`, the CLH in data set [1] was 31.1 µL/min/mg. Besides, the selectivity ratio at 96 h was more than 1.43 in data set [2], more than 2.7 in data set [3] and more than 2.73 in data set [15]. Also, the Activity entry in [4], in data set [7], in [10], in data set [11] and in data set [16] was “Non-toxic” in each case. Moreover, the concentration for half-maximal inhibition (IC50) was more than 2.5 µM in data set [5]; 7.4 µM in data set [6]; 1360 nM in data set [8]; more than 20 µM in data set [9]; 7.32 µM in [12]; more than 2.5 µM in data set [13]. Besides, the half-inhibitory concentration (IC50) in data set [17] stood at 14 µM. Further, in data set [14], the CC50 was more than 20 µM.

As to `CCCCN(CCCC)CCCOc1ccc2c(=O)c3c([nH]c2c1)CCCC3`, the CLH in data set [1] is more than 500 µL/min/mg. Further, the selectivity ratio at 96 h in data set [3] was more than 4.06. Moreover, the Activity entry in data set [4], in data set [7], in data set [10], in data set [11] and in data set [16] was “Non-toxic” in each case. The IC50 in data set [5] was 0.0394 µM; in data set [18] it was more than 200 µM; in data set [6] it was 4.92 µM; in data set [8] it was 7.2 nM; in data set [9], more than 20 µM; in data set [12] it was more than 20 µM. In addition, the concentration for half-maximal inhibition (IC50) in data set [13] was 0.0597 µM; in data set [17], more than 20 µM. Further, the CC50 in data set [14] is more than 20 µM.

With `O=c1c2c([nH]c3cccc(Oc4ccc(OC(F)(F)F)cc4)c13)CCCC2`, the CLH in [1] turned out to be 48 µL/min/mg. In addition, the selectivity ratio at 96 h in data set [2] was 1.57; in data set [3], 1.79; in [15] it was 0.787; in [19], 2.05. The Activity entry in data set [4], in data set [7], in data set [10], in [11] and in data set [16] was “Non-toxic” each time. For the same molecule, the IC50 was more than 2.5 µM in [5]; more than 200 µM in [18]; 3.34 µM in [6]; more than 2500 nM in [8]; 2.92 µM in [9]; 7.62 µM in [12]. Further, the figures for the concentration for half-maximal inhibition (IC50) in data set [13] and in data set [17] were more than 2.5 µM and 3.83 µM, respectively. In data set [14], the CC50 was 6 µM.

For the molecule `CCCN(CCC)CCCOc1ccc2c(=O)c3c([nH]c2c1)CCCC3`, in data set [1], the CLH was more than 500 µL/min/mg. Also, the selectivity ratio at 96 h is more than 3.75 in data set [3] and more than 1.43 in data set [19]. Further, the Activity entry in data set [4], in [7], in data set [10], in [11] and in data set [16] was “Non-toxic” throughout. Moreover, the IC50 in [5] is 0.126 µM; in data set [18] it was more than 200 µM; in [6], 5.33 µM; in [8] it was 108 nM; in [9] it was 14 µM; in data set [12] it was more than 20 µM. The IC50 in data set [13] is 0.162 µM; in data set [17] it was more than 20 µM. Besides, the cytotoxic concentration (CC50) in [14] was more than 20 µM.

In data set [1], `CCCN(CCC)CCOc1ccc2c(=O)c3c([nH]c2c1)CCCC3` registered a CLH of 492 µL/min/mg. The selectivity ratio at 96 h in data set [3] was more than 2.03. In addition, the Activity entry in data set [4], in data set [7], in data set [10], in [11] and in [16] was “Non-toxic” throughout. The 50% inhibitory concentration (IC50) in data set [5] is 0.0643 µM; in [18], more than 200 µM; in data set [6], 9.83 µM; in data set [8], 24.5 nM; in data set [9], more than 20 µM; in data set [12], more than 20 µM. Also, the concentration for half-maximal inhibition (IC50) in data set [13] is 0.0461 µM; in data set [17], more than 20 µM. In addition, the cytotoxic concentration (CC50) in data set [14] was more than 20 µM.

Molecule `O=c1c2c([nH]c3cc(Oc4ccccc4OC(F)(F)F)ccc13)CCCC2` came in with a CLH in [1] of 72.1 µL/min/mg. In addition, the figures for the selectivity ratio at 96 h in data set [3] and in data set [15] were more than 31.2 and more than 2.59, respectively. In addition, the Activity entry in [4], in data set [7], in data set [10], in data set [11] and in data set [16] was “Non-toxic” in each case. In addition, the IC50 was 0.000171 µM in [5]; more than 200 µM in data set [18]; 0.64 µM in [6]; 0.023 nM in data set [8]; more than 20 µM in data set [9]; 7.72 µM in data set [12]. For the same molecule, the figures for the IC50 in [13] and in data set [17] were 0.000275 µM and more than 20 µM, respectively. Also, in data set [14], the 50% cytotoxic concentration (CC50) was more than 20 µM.

Consider `O=c1c2c([nH]c3cc(Nc4ccc(OC(F)(F)F)cc4)ccc13)CCCC2`, for which the CLH in data set [1] is 56 µL/min/mg. Also, the selectivity ratio at 96 h in [2] was 1.4; in data set [3], 8.62; in data set [15] it was 1.66; in [19], 1.29. In addition, the Activity result in [4], in data set [7], in data set [10], in data set [11] and in data set [16] was “Non-toxic” each time. Further, the IC50 in data set [5] is 0.00185 µM; in data set [18] it was more than 200 µM; in data set [6], 0.21 µM; in [8], 0.232 nM; in data set [9], 1.4 µM; in [12] it was 1.09 µM. The 50% inhibitory concentration (IC50) in data set [13] was found to be 0.00279 µM; in data set [17], 1.29 µM. Also, the CC50 in data set [14] was found to be 1.81 µM.

The molecule `O=c1c2c([nH]c3cc(OCc4ccc(OC(F)(F)F)cc4)ccc13)CCCC2` displayed a CLH in data set [1] of 31.9 µL/min/mg. In data set [3], the selectivity ratio at 96 h was more than 5.52. Besides, the Activity result in data set [4], in [7], in data set [10], in data set [11] and in data set [16] was “Non-toxic” throughout. Moreover, the IC50 in [5] is 0.0275 µM; in [18] it was more than 200 µM; in data set [6], 3.62 µM; in data set [8] it was 6.02 nM; in data set [9], more than 20 µM; in [12] it was more than 20 µM. The figures for the IC50 in data set [13] and in data set [17] were 0.0435 µM and more than 20 µM, respectively. Also, the CC50 in [14] was more than 20 µM.

Source of the values: ChEMBL document CHEMBL6134844, “Development of Next-Generation Antimalarial Acridones with Radical Cure Potential” (J Med Chem, 2025).
